Assay results reported in US8598085B2, “2-(2-fluoro-substituted phenyl)-6-amino-5-chloro-4-pyrimidinecarboxylates and their use as herbicides” (Dow AgroSciences LLC, priority 2007, dated 2013).

Assays:
[1] = test system: HELAN—Common sunflower (Helianthus annuus); experiment: General preemergence herbicidal activity, common sunflower; type: in vivo; conditions: pre-emergent, rate 140 g ai/ha, visual score after 20-22 days (0 no injury, 100 complete kill or no emergence), read-out: % Growth Inhibition HELAN
Source text: (§1) Seeds of the desired test plant species were planted in a soil matrix prepared by mixing a loam soil (43 percent silt, 19 percent clay, and 38 percent sand, with a pH of about 8.1 and an organic matter content of about 1.5 percent) and sand in a 70 to 30 ratio. The soil matrix was contained in plastic pots with a surface area of 113 square centimeters. When required to ensure good germination and healthy plants, a fungicide treatment and/or other chemical or physical treatment was applied. A weighed amount, determined by the highest rate to be tested, of each test compound was placed in a 25 mL glass vial and was dissolved in 6 mL of a 97:3 v/v (volume/volume) mixture of acetone and DMSO to obtain concentrated stock solutions. […] The stock solutions obtained were diluted with 18 mL of a 0.1% v/v aqueous solution of Tween® 20 surfactant to obtain spray solutions containing the highest application rate. Additional application rates were obtained by serial dilution of 12 mL of the high rate solution into a solution containing 3 mL of 97:3 v/v mixture of acetone and DMSO and 9 mL of the 0.1% v/v aqueous solution of Tween® 20 surfactant to obtain 1⁄2X, 1⁄4X, 1⁄8X and 1/16X rates of the high rate. Compound requirements are based upon a 12 mL application volume at a rate of 187 L/ha. Formulated compounds were applied to the plant material with an overhead Mandel track sprayer equipped with […] nozzles calibrated to deliver 187 L/ha over an application area of 0.503 square meters at a spray height of 18 inches (43 cm) above the soil surface. Control plants were sprayed in the same manner with the solvent blank. The treated pots and control pots were placed in a greenhouse maintained with an approximate 15 hour photoperiod and temperatures of about 23-29° C. during the day and 22-28° C. during the night. Nutrients and water were added on a regular basis and supplemental lighting was provided with overhead metal halide 1000-Watt lamps as necessary. The water was added by top-irrigation. After 20-22 days, the condition of the test plants that germinated and grew as compared with that of the untreated plants that emerged and grew was determined visually and scored on a scale of 0 to 100 percent where 0 corresponds to no injury and 100 corresponds to complete kill or no emergence.

[2] = test system: SORVU—Common sorghum (Sorghum vulgare); experiment: General preemergence herbicidal activity, common sorghum; type: in vivo; conditions: pre-emergent, rate 140 g ai/ha, visual score after 20-22 days (0 no injury, 100 complete kill or no emergence), read-out: % Growth Inhibition SORVU
Source text: as §1

[3] = test system: CIRAR—Canada thistle (Cirsium arvense); experiment: General postemergence herbicidal activity, Canada thistle; type: in vivo; conditions: post-emergence, 336 h, post-emergent, rate 140 g ai/ha, visual score after 14 days (0 no injury, 100 complete kill), read-out: % Growth Reduction CIRAR
Method: (§2) Seeds or nutlets of the desired test plant species were planted in Sun Gro MetroMix® 306 planting mixture, which typically has a pH of 6.0 to 6.8 and an organic matter content of about 30 percent, in plastic pots with a surface area of 64 square centimeters. When required to ensure good germination and healthy plants, a fungicide treatment and/or other chemical or physical treatment was applied. The plants were grown for 7-21 days in a greenhouse with an approximate 15 hour photoperiod which was maintained at about 23-29° C. during the day and 22-28° C. during the night. Nutrients and water were added on a regular basis and supplemental lighting was provided with overhead metal halide 1000-Watt lamps as necessary. The plants were employed for testing when they reached the first or second true leaf stage.
(§3) A weighed amount, determined by the highest rate to be tested, of each test compound was placed in a 25 mL glass vial and was dissolved in 4 mL of a 97:3 v/v (volume/volume) mixture of acetone and dimethyl sulfoxide (DMSO) to obtain concentrated stock solutions. […] The concentrated stock solutions obtained were diluted with 20 mL of an aqueous mixture containing acetone, water, isopropyl alcohol, DMSO, Atplus 411F crop oil concentrate, and Triton X-155 surfactant in a 48.5:39:10:1.5:1.0:0.02 v/v ratio to obtain spray solutions containing the highest application rates. Additional application rates were obtained by serial dilution of 12 mL of the high rate solution into a solution containing 2 mL of 97:3 v/v (volume/volume) mixture of acetone and DMSO and 10 mL of an aqueous mixture containing acetone, water, isopropyl alcohol, DMSO, Atplus 411F crop oil concentrate, and Triton X-155 surfactant in a 48.5:39:10:1.5:1.0:0.02 v/v ratio to obtain ½X, ¼X, ⅛X and 1/16X rates of the high rate. Compound requirements are based upon a 12 mL application volume at a rate of 187 L/ha. Formulated compounds were applied to the plant material with an overhead Mandel track sprayer equipped with 8002E nozzles calibrated to deliver 187 L/ha over an application area of 0.503 square meters at a spray height of 18 inches […] above the average plant canopy height. Control plants were sprayed in the same manner with the solvent blank.
(§4) The treated plants and control plants were placed in a greenhouse as described above and watered by sub-irrigation to prevent wash-off of the test compounds. After 14 days, the condition of the test plants as compared with that of the untreated plants was determined visually and scored on a scale of 0 to 100 percent where 0 corresponds to no injury and 100 corresponds to complete kill.

[4] = test system: POLCO—Wild buckwheat (Polygonum convolvulus); experiment: General postemergence herbicidal activity, wild buckwheat; type: in vivo; conditions: Fallopia convolvulus, post-emergence, 336 h; post-emergent, rate 140 g ai/ha, visual score after 14 days (0 no injury, 100 complete kill); read-out: % Growth Reduction POLCO
Method: as §2, §3, §4

[5] = test system: CHEAL—Common lambsquarters (Chenopodium album); experiment: General preemergence herbicidal activity, common lambsquarters; type: in vivo; conditions: pre-emergent, rate 140 g ai/ha, visual score after 20-22 days (0 no injury, 100 complete kill or no emergence), read-out: % Growth Inhibition CHEAL
Source text: as §1

[6] = test system: ECHCG—Barnyardgrass (Echinochloa crus-galli); experiment: General postemergence herbicidal activity, barnyardgrass; type: in vivo; conditions: post-emergence, 336 h, post-emergent, rate 140 g ai/ha, visual score after 14 days (0 no injury, 100 complete kill), read-out: % Growth Reduction ECHCG
Method: as §2, §3, §4

[7] = test system: ABUTH—Velvetleaf (Abutilon theophrasti); experiment: General postemergence herbicidal activity, velvetleaf; type: in vivo; conditions: post-emergence, 336 h, post-emergent, rate 140 g ai/ha, visual score after 14 days (0 no injury, 100 complete kill), read-out: % Growth Reduction ABUTH
Method: as §2, §3, §4

[8] = test system: ZEAMX—Corn (Zea mays); experiment: General preemergence herbicidal activity, corn; type: in vivo; conditions: pre-emergent, rate 140 g ai/ha, visual score after 20-22 days (0 no injury, 100 complete kill or no emergence), read-out: % Growth Inhibition ZEAMX
Source text: as §1

[9] = test system: ABUTH—Velvetleaf (Abutilon theophrasti); experiment: General preemergence herbicidal activity, velvetleaf; type: in vivo; conditions: pre-emergent, rate 140 g ai/ha, visual score after 20-22 days (0 no injury, 100 complete kill or no emergence), read-out: % Growth Inhibition ABUTH
Source text: as §1

SMILES	inhibition at 140 g/ha [1] [%]	inhibition at 140 g/ha [2] [%]	pest or weed control at 140 g/ha [3] [%]	pest or weed control at 140 g/ha [4] [%]	inhibition at 140 g/ha [5] [%]	pest or weed control at 140 g/ha [6] [%]	pest or weed control at 140 g/ha [7] [%]	inhibition at 140 g/ha [8] [%]	inhibition at 140 g/ha [9] [%]	melting point [°C]
Nc1nc(-c2ccc(C(F)(F)F)cc2F)nc(C(=O)O)c1Cl [Compound 15, 6-Amino-5-chloro-2-(2-fluoro-4-trifluoromethylphenyl)pyrimidine-4-carboxylic acid]	10	0	80	65	60	50	40	65	10	–
Nc1nc(-c2ccc(C(F)(F)F)c(F)c2F)nc(C(=O)O)c1Cl [Compound 16, 6-Amino-5-chloro-2-(2,3-difluoro-4-trifluoromethylphenyl)pyrimidine-4-carboxylic acid]	65	60	90	95	100	90	65	30	60	–
Nc1nc(-c2ccc(Cl)c(F)c2F)nc(C(=O)O)c1Cl [Compound 12, 6-Amino-5-chloro-2-(4-chloro-2,3-difluorophenyl)pyrimidine-4-carboxylic acid]	100	90	90	100	100	90	100	15	100	209 to 211
Nc1nc(-c2ccc(Cl)cc2F)nc(C(=O)O)c1Cl [Compound 11, 6-Amino-5-chloro-2-(4-chloro-2-fluorophenyl)pyrimidine-4-carboxylic acid]	95	95	100	100	100	85	99	0	90	194 to 196
